Earlier results on 17 compounds are cited in article PMC10655862 (Methods in enzymology, 2023).

One data set concerns AKR1D1. The conditions noted are these: 5β-reduction, fluorometric, pH 6.0, 37 °C; ref Chen et al., (2011).
Another data set has as its target AKR1C2. As to conditions: AKR1C2, competitive inhibition (C); ref Bauman et al. (2005).
The target in the next data set is AKR1C1. As to conditions: AKR1C1, competitive inhibition (C); ref Bauman et al. (2005).
The next data set deals with AKR1D1 (5β-reductase). The conditions noted are these: ref Chen et al., (2011); for Type of inhibition (5β-reductase): inhibition of testosterone reduction; for inhibition of AKR1D1, in words: reduction of [4-14C]-testosterone.
The target of the next data set is AKR1C3. The conditions noted are these: AKR1C3, competitive inhibition (C); ref Bauman et al. (2005).
For data set [1], the target named is 5α-reductase type 2 (SRD5A2). As to conditions: ref Bull et al. (1996).
Another data set deals with aldose reductase AKR1B1. As to conditions: NADPH binding to AKR1B1, literature comparison; ref not given.

Read-outs that look alike come from different tables or passages of the source.

A word on the Km: it is the concentration of substrate that gives half-maximal velocity. In the case of `C[C@]12CC[C@H]3[C@@H](CCC4=CC(=O)C=C[C@@]43C)[C@@H]1CC[C@@H]2O` [1,4-Androstadien-17β-ol-3-one], in the data set on AKR1D1, the Km was 3.2 ± 0.2 µM. In the case of `O=C(O)c1ccc(C(=O)c2ccccc2)cc1` [4-Benzoylbenzoic acid], the results for the Ki on AKR1C2, at AKR1C1 and at AKR1C3 were 13.3 µM, 12.5 µM and 1.9 µM, respectively. The “Type of inhibition (5β-reductase)” value with AKR1D1 (5β-reductase) is listed as “n.i”. Further, the “inhibition of AKR1D1, in words” value in the data set on AKR1D1 (5β-reductase) is recorded as “ineffective”. As for `CC(C)CCC[C@@H](C)[C@H]1CC[C@H]2[C@@H]3[C@H](O)CC4=CC(=O)CC[C@]4(C)[C@H]3CC[C@]12C` [4-Cholesten-7α-ol-3-one], the Km with AKR1D1 was 0.8 ± 0.2 µM. As to `C[C@]12CC[C@H]3[C@@H](CCC4=CC(=O)CC[C@@H]43)[C@@H]1CC[C@@H]2O` [4-Estren-l7β-ol-3-one], in the data set with AKR1D1, the Km is 3 ± 0.5 µM. Take `C[C@H](CCC(=O)O)[C@H]1CC[C@H]2[C@@H]3[C@H](O)C[C@@H]4C[C@H](O)CC[C@]4(C)[C@H]3CC[C@]12C` [Chenodeoxycholic acid]: the values for the Ki at AKR1C2, on AKR1C1 and on AKR1C3 were 0.017 µM, 8.3 µM and 10 µM, respectively. In addition, the “inhibition of AKR1D1, in words” value in the data set with AKR1D1 (5β-reductase) is given as “weak non-competitive inhibitors”. For `CC(C)CCC[C@@H](C)[C@H]1CC[C@H]2[C@@H]3CCC4=CC(=O)CC[C@]4(C)[C@H]3CC[C@]12C` [Cholestenone], the Km in the data set with AKR1D1 is 0.3 ± 0.1 µM. `C[C@]12C[C@H](O)[C@H]3[C@@H](CCC4=CC(=O)CC[C@@]43C)[C@@H]1CC[C@@H]2C(=O)CO` [Corticosterone]: the Km in the data set with AKR1D1 is 2.2 ± 0.5 µM. `C[C@]12CCC(=O)C=C1CC[C@@H]1[C@@H]2[C@@H](O)C[C@@]2(C)[C@H]1CC[C@]2(O)C(=O)CO` [Cortisol]: in the data set with AKR1D1, the Km is 13.1 ± 1.8 µM. On to `C[C@]12CCC(=O)C=C1CC[C@@H]1[C@@H]2C(=O)C[C@@]2(C)[C@H]1CC[C@]2(O)C(=O)CO` [Cortisone], for which the Km in the data set with AKR1D1 was 15.1 ± 0.3 µM. On to `C[C@]12CC[C@H]3[C@@H](CCC4=CC(=O)CC[C@@]43C)[C@@H]1CC[C@H]2O` [Epitestosterone], for which, in the data set with AKR1D1, the Km is 2.9 ± 0.6 µM.

In the case of `CC(C)(C)NC(=O)[C@H]1CC[C@H]2[C@@H]3CC[C@H]4NC(=O)C=C[C@]4(C)[C@H]3CC[C@]12C` [Finasteride], the “inhibition of AKR1D1, in words” value in the data set with AKR1D1 (5β-reductase) is “competitive inhibitor”. Moreover, the Ki in data set [1] (competitive inhibition (C)) was 0.026 µM; in data set [1] (mechanism-based inhibition (MBI)) it was less than 0.001 µM.

Consider `COc1ccc2c(c1)c(CC(=O)O)c(C)n2C(=O)c1ccc(Cl)cc1` [Indomethacin], for which, in the data set on AKR1D1 (5β-reductase), the “Type of inhibition (5β-reductase)” value was “n.i” and the “inhibition of AKR1D1, in words” value was “ineffective”. As for `Cc1cccc(Nc2ccccc2C(=O)O)c1C` [Mefenamic acid], the Ki at AKR1C1 is 0.8 µM. Moreover, in the data set on AKR1D1 (5β-reductase), the “Type of inhibition (5β-reductase)” value is given as “n.i” and the “inhibition of AKR1D1, in words” value is “ineffective”. In general, Kd refers to the constant that tells how readily two partners part at equilibrium. With `NC(=O)C1=CN([C@@H]2O[C@H](COP(=O)(O)OP(=O)(O)OC[C@H]3O[C@@H](n4cnc5c(N)ncnc54)[C@H](OP(=O)(O)O)[C@@H]3O)[C@@H](O)[C@H]2O)C=CC1` [NADPH], the Kd at aldose reductase AKR1B1 is 0.009 µM. Turning to `C[C@]12CC[C@H]3[C@@H](CCC4=CC(=O)CC[C@@]43C)[C@@H]1CC[C@@H]2O` [Testosterone], in the data set with AKR1D1, the Michaelis constant (Km) is 2.7 ± 1.2 µM. As to `C[C@H](CCC(=O)O)[C@H]1CC[C@H]2[C@@H]3[C@@H](O)C[C@@H]4C[C@H](O)CC[C@]4(C)[C@H]3CC[C@]12C` [Ursodeoxycholic acid], the Ki at AKR1C2 is 0.011 µM; on AKR1C1, 4.9 µM; at AKR1C3, 1.3 µM. Further, in the data set with AKR1D1 (5β-reductase), the “inhibition of AKR1D1, in words” value was “weak non-competitive inhibitors”. Regarding `C[C@]12CCC(=O)C=C1CC[C@@H]1[C@@H]2CC[C@]2(C)C(=O)CC[C@@H]12` [Δ^4-Androstene-3,17-dione], in the data set on AKR1D1, the Km was 0.9 ± 0.2 µM.
